# Where two headings read alike, the source gives them in different places.
# Assays:
# [1] = test system: Glomerella lagenarium syn. Colletotrichum lagenarium; assay: Example B1: mixtures, preventative activity against Glomerella lagenarium syn. Colletotrichum lagenarium, liquid culture; assay type: cell-based; conditions: for inhibition at 0.1 ppm / inhibition at 0.3 ppm: Colletotrichum orbiculare, read-out: Activity (%) B
# Source text: (§1) This occurs whenever the action of an active ingredient combination is greater than the sum of the actions of the individual components. The action to be expected E for a given active ingredient combination obeys the so-called COLBY formula and can be calculated as follows (COLBY, S. R. “Calculating synergistic and antagonistic responses of herbicide combination”. Weeds, Vol. 15, pages 20-22; 1967):
# (§2) If the action actually observed (O) is greater than the expected action (E), then the action of the combination is super-additive, i.e. there is a synergistic effect. In mathematical terms, synergism corresponds to a positive value for the difference of (O-E). In the case of purely complementary addition of activities (expected activity), said difference (O-E) is zero. A negative value of said difference (O-E) signals a loss of activity compared to the expected activity.
# (§3) Conidia of the fungus from cryogenic storage were directly mixed into nutrient broth (PDB potato dextrose broth). A DMSO solution of the test compounds was placed into a microtiter plate (96-well format) and the nutrient broth containing the fungal spores was added to it.
# (§4) Fungicidal activity was evaluated on a 100-0 scale (100=no disease growth; 0=well completely covered by mycelium).
# Septoria tritici = assay: Example B3: mixtures, preventative activity against Septoria tritici (leaf blotch), liquid culture; assay type: cell-based; conditions: for inhibition at 0.1 ppm / inhibition at 0.3 ppm: Zymoseptoria tritici, read-out: Activity (%) B
# Source text: as §1, §2, §3, §4
# Phakopsora pachyrhizi = assay: Example B5: preventative activity against Phakopsora pachyrhizi (soybean rust), whole soybean plants sprayed, leaf disks inoculated; assay type: in vivo
# Experimental: Whole soybean plants are treated with the recited active ingredients 4 weeks after planting. 1 day after spraying leaf disks are cut from the first trifoliate leaf. Five repetitions at each rate are conducted. The leaf disks are inoculated with Phakopsora pachyrhizi (Asian soybean rust) one day after treatment.
# Evaluation of the leaf disks is conducted 11 to 14 days after inoculation and the activity is derived from the relation of the treated vs untreated, infested check (100=no disease, no damage to the leaf, 0=high infestation, leaf damaged heavily). The rates of the active ingredients used are given in the tables as g active ingredient (a.i.)/ha.
# [2] = test system: Mycosphaerella arachidis syn. Cercospora arachidicola; assay: Example B4: mixtures, preventative activity against Mycosphaerella arachidis syn. Cercospora arachidicola (brown leaf spot of peanut), liquid culture; assay type: cell-based; conditions: component B alone; for inhibition at 0.1 ppm / inhibition at 0.3 ppm: Mycosphaerella arachidis
# Source text: as §1, §2, §3
# Cercospora arachidicola (Brown leaf spot of peanut). Fungicidal activity was evaluated on a 100-0 scale (100=no disease growth; 0=well completely covered by mycelium).
# Septoria glycines = assay: Example B2: mixtures, preventative activity against Septoria glycines (brown spot), liquid culture; assay type: cell-based; conditions: component B alone; for inhibition at 0.1 ppm / inhibition at 0.3 ppm: Septoria glycines; for inhibition at 0.1 ppm: read-out: Activity (%) B
# Source text: as §1, §2
# as §3, with “fungus harvested” for “fungus”, “a fresh culture grown on artificial media,” for “cryogenic storage”
# as §4
# [3] = component B alone, 0.1 ppm, 100-0 scale
# [4] = component B alone, 0.3 ppm, 100-0 scale
# [5] = active ingredient alone, 2.25 g/ha
# [6] = active ingredient alone, 4.5 g/ha
# [7] = active ingredient alone, 9 g/ha
# [8] = 72 h, component B alone, 0.1 ppm, 72 hrs, 100=no disease growth
# [9] = 72 h, component B alone, 0.3 ppm, 72 hrs
# [10] = Phakopsora pachyrhizi, foliar, read-out: Observed Activity (% of untreated) against Phakopsora pachyrhizi
# [11] = Phakopsora pachyrhizi, foliar, applied alone, 22.5 g/ha, read-out: Observed Activity (% of untreated) against Phakopsora pachyrhizi
# [12] = Phakopsora pachyrhizi, foliar, applied alone, 45 g/ha, read-out: Observed Activity (% of untreated) against Phakopsora pachyrhizi
compound,measurement,setting,value
"Cn1cc(C(=O)Nc2cccc3c2[C@@H]2CC[C@H]3C2=C(Cl)Cl)c(C(F)F)n1 (racemic) [benzovindiflupyr, reference compound]",Activity (%) B,"[1]; component B alone, 0.1 ppm",50%
same,Activity (%) B,"[1]; component B alone, 0.3 ppm",100%
same,Activity (%) B,Septoria tritici; [3],50%
same,Activity (%) B,Septoria tritici; [4],70%
same,Observed Activity (%) (% of untreated),Phakopsora pachyrhizi; [5],34%
same,Observed Activity (%) (% of untreated),Phakopsora pachyrhizi; [6],80%
same,Observed Activity (%) (% of untreated),Phakopsora pachyrhizi; [7],99%
same,Observed Activity (% of untreated) against Phakopsora pachyrhizi,"Phakopsora pachyrhizi; applied alone, 2.25 g/ha",34%
same,Observed Activity (% of untreated) against Phakopsora pachyrhizi,"Phakopsora pachyrhizi; applied alone, 4.5 g/ha",80%
same,Observed Activity (% of untreated) against Phakopsora pachyrhizi,"Phakopsora pachyrhizi; applied alone, 9 g/ha",99%
Cc1ccc(C(=O)OCc2ccc(Oc3ccccc3)cc2)c(N)n1 [aminopyrifen],Activity (%) B,"[1]; component B alone, 0.1 ppm",20%
same,Activity (%) B,"[1]; component B alone, 0.3 ppm",50%
same,Activity (%) B,[2]; 0.1 ppm,90%
same,Activity (%) B,[2]; 0.3 ppm,100%
same,Activity (%) B,Septoria glycines; 0.1 ppm,0%
same,Activity (%) B,"Septoria glycines; 0.1 ppm, 100-0 scale",0%
same,Activity (%) B,"Septoria glycines; 0.3 ppm, 100-0 scale",20%
"N#Cc1c(Cl)c(Cl)c(Cl)c(C#N)c1Cl [chlorothalonil, reference compound]",inhibition at 0.1 ppm,"[1]; component B alone, 0.1 ppm",0%
same,inhibition at 0.3 ppm,"[1]; component B alone, 0.3 ppm",20%
same,inhibition at 0.1 ppm,[2]; 0.1 ppm,0%
same,inhibition at 0.3 ppm,[2]; 0.3 ppm,90%
same,inhibition at 0.1 ppm,Septoria tritici; [8],20%
same,inhibition at 0.3 ppm,Septoria tritici; [9],70%
same,inhibition at 0.3 ppm,Septoria tritici; [4],70%
"COc1ccnc(C(=O)N[C@@H](C)C(=O)O[C@@H](C)C(c2ccc(F)cc2)c2ccc(F)cc2)c1OC(C)=O [florylpicoxamid, reference compound]",Activity (%) B,[2]; 0.01 ppm,70%
same,Activity (%) B,[2]; 0.02 ppm,90%
same,Activity (%) B,Septoria glycines; 0.01 ppm,0%
same,Activity (%) B,"Septoria glycines; 0.01 ppm, 100-0 scale",0%
same,Activity (%) B,Septoria glycines; 0.02 ppm,20%
same,Activity (%) B,"Septoria glycines; 0.02 ppm, 100-0 scale",20%
same,Activity (%) B,"Septoria tritici; component B alone, 0.01 ppm, 100-0 scale",0%
same,Activity (%) B,"Septoria tritici; component B alone, 0.01 ppm, 72 hrs",0%
same,Activity (%) B,"Septoria tritici; component B alone, 0.02 ppm, 100-0 scale",20%
same,Activity (%) B,"Septoria tritici; component B alone, 0.02 ppm, 72 hrs",20%
"N#Cc1c[nH]cc1-c1cccc2c1OC(F)(F)O2 [fludioxonil, reference compound]",inhibition at 0.1 ppm,[1],0%
same,inhibition at 0.3 ppm,[1],0%
same,inhibition at 0.1 ppm,Septoria tritici; 72 h,0%
same,inhibition at 0.3 ppm,Septoria tritici; 72 h,20%
same,inhibition at 0.1 ppm,Septoria tritici,0%
same,inhibition at 0.3 ppm,Septoria tritici,20%
same,inhibition at 450 g/ha,Phakopsora pachyrhizi; [10],0%
same,inhibition at 900 g/ha,Phakopsora pachyrhizi; [10],1%
O=C(NCCc1ncc(C(F)(F)F)cc1Cl)c1ccccc1C(F)(F)F [fluopyram],inhibition at 0.1 ppm,[2]; 0.1 ppm,0%
same,inhibition at 0.3 ppm,[2]; 0.3 ppm,90%
same,inhibition at 0.1 ppm,Septoria tritici; [8],0%
same,inhibition at 0.3 ppm,Septoria tritici; [9],50%
O=C1c2ccccc2C(=O)N1SC(Cl)(Cl)Cl [folpet],inhibition at 0.1 ppm,[2]; 0.1 ppm,20%
same,inhibition at 0.1 ppm,Septoria tritici; [3],0%
same,inhibition at 0.3 ppm,Septoria tritici; [4],0%
Cc1nc2c(F)c(F)ccc2cc1Oc1cccc(F)c1C(C)(C)O [ipflufenoquin],Activity (%) B,"[1]; component B alone, 0.1 ppm",20%
same,Activity (%) B,"[1]; component B alone, 0.3 ppm",100%
same,Activity (%) B,"Septoria glycines; 0.1 ppm, 100-0 scale",0%
same,Activity (%) B,"Septoria glycines; 0.3 ppm, 100-0 scale",0%
same,Activity (%) B,Septoria tritici; [3],0%
same,Activity (%) B,Septoria tritici; [4],20%
CC(C)c1ccc(Cl)cc1CN(C(=O)c1c(C(F)F)nn(C)c1F)C1CC1 [isoflucypram],Activity (%) B,[2]; 0.1 ppm,90%
same,Activity (%) B,[2]; 0.3 ppm,100%
"Cc1cccc(-n2nnn(C)c2=O)c1COc1ccn(-c2ccc(Cl)cc2)n1 [metyltetraprole, reference compound]",Activity (%) B,"[1]; component B alone, 0.1 ppm",90%
same,Activity (%) B,"[1]; component B alone, 0.3 ppm",90%
same,Observed Activity (%) (% of untreated),Phakopsora pachyrhizi; [5],1%
same,Observed Activity (%) (% of untreated),Phakopsora pachyrhizi; [6],0%
same,Observed Activity (%) (% of untreated),Phakopsora pachyrhizi; [7],7%
same,Observed Activity (%) (% of untreated),"Phakopsora pachyrhizi; active ingredient alone, 18 g/ha",67%
same,Observed Activity (% of untreated) against Phakopsora pachyrhizi,"Phakopsora pachyrhizi; applied alone, 2.25 g/ha",1%
same,Observed Activity (% of untreated) against Phakopsora pachyrhizi,"Phakopsora pachyrhizi; applied alone, 4.5 g/ha",0%
same,Observed Activity (% of untreated) against Phakopsora pachyrhizi,"Phakopsora pachyrhizi; applied alone, 9 g/ha",7%
same,Observed Activity (% of untreated) against Phakopsora pachyrhizi,"Phakopsora pachyrhizi; applied alone, 18 g/ha",67%
"OC(Cc1ccccc1Cl)(Cn1nc[nH]c1=S)C1(Cl)CC1 (stereo not drawn) [proth ioconazole, prothioconazole, reference compound]",inhibition at 0.3 ppm,"[1]; component B alone, 0.3 ppm",50%
same,Activity (%) B,"[1]; component B alone, 0.1 ppm",20%
same,inhibition at 0.1 ppm,"Septoria glycines; 0.1 ppm, 100-0 scale",90%
same,inhibition at 0.3 ppm,"Septoria glycines; 0.3 ppm, 100-0 scale",90%
same,Activity (%) B,Septoria glycines; 0.3 ppm,50%
same,inhibition at 22.5 g/ha,"Phakopsora pachyrhizi; Phakopsora pachyrhizi, foliar, active ingredient alone, 22.5 g/ha, read-out: Observed Activity (%) (% of untreated)",47%
same,inhibition at 45 g/ha,"Phakopsora pachyrhizi; Phakopsora pachyrhizi, foliar, active ingredient alone, 45 g/ha, read-out: Observed Activity (%) (% of untreated)",80%
same,inhibition at 90 g/ha,"Phakopsora pachyrhizi; Phakopsora pachyrhizi, foliar, active ingredient alone, read-out: Observed Activity (%) (% of untreated)",94%
same,inhibition at 22.5 g/ha,Phakopsora pachyrhizi; [11],47%
same,inhibition at 45 g/ha,Phakopsora pachyrhizi; [12],80%
same,inhibition at 90 g/ha,"Phakopsora pachyrhizi; Phakopsora pachyrhizi, foliar, applied alone, read-out: Observed Activity (% of untreated) against Phakopsora pachyrhizi",94%
"CON(C(=O)c1cn(C)nc1C(F)F)C(C)Cc1c(Cl)cc(Cl)cc1Cl (stereo not drawn) [pydiflumetofen, reference compound]",Activity (%) B,"[1]; component B alone, 0.1 ppm",0%
same,Activity (%) B,"[1]; component B alone, 0.3 ppm",0%
same,Observed Activity (%) (% of untreated) against Phakopsora pachyrhizi,"Phakopsora pachyrhizi; applied alone, 22.5 g/ha",28%
same,Observed Activity (%) (% of untreated) against Phakopsora pachyrhizi,"Phakopsora pachyrhizi; applied alone, 45 g/ha",74%
"CON=C(C(=O)OC)c1ccccc1CON=C(C)c1cccc(C(F)(F)F)c1 [trifloxystrobin, reference compound]",inhibition at 0.1 ppm,"[1]; component B alone, 0.1 ppm",90%
same,inhibition at 0.3 ppm,"[1]; component B alone, 0.3 ppm",90%
same,inhibition at 0.1 ppm,"Septoria glycines; 0.1 ppm, 100-0 scale",90%
same,inhibition at 0.3 ppm,"Septoria glycines; 0.3 ppm, 100-0 scale",100%
same,inhibition at 2.25 g/ha,"Phakopsora pachyrhizi; Phakopsora pachyrhizi, foliar, applied alone, 2.25 g/ha, read-out: Observed Activity (% of untreated) against Phakopsora pachyrhizi",0%
same,inhibition at 4.5 g/ha,"Phakopsora pachyrhizi; Phakopsora pachyrhizi, foliar, applied alone, 4.5 g/ha, read-out: Observed Activity (% of untreated) against Phakopsora pachyrhizi",3%
same,inhibition at 9 g/ha,"Phakopsora pachyrhizi; Phakopsora pachyrhizi, foliar, applied alone, 9 g/ha, read-out: Observed Activity (% of untreated) against Phakopsora pachyrhizi",0%
same,inhibition at 18 g/ha,"Phakopsora pachyrhizi; Phakopsora pachyrhizi, foliar, applied alone, 18 g/ha, read-out: Observed Activity (% of untreated) against Phakopsora pachyrhizi",19%
"CCOC(=O)C1CC(=O)C(=C(O)C2CC2)C(=O)C1 (stereo not drawn) [trinexapac-ethyl, reference compound]",inhibition at 0.1 ppm,"[1]; component B alone, 0.1 ppm",0%
same,inhibition at 0.3 ppm,"[1]; component B alone, 0.3 ppm",0%
same,inhibition at 22.5 g/ha,Phakopsora pachyrhizi; [11],0%
same,inhibition at 22.5 g/ha,"Phakopsora pachyrhizi; Phakopsora pachyrhizi, foliar, applied alone, 22.5 g/ha, read-out: Observed Activity (%) (% of untreated) against Phakopsora pachyrhizi",0%
same,inhibition at 45 g/ha,Phakopsora pachyrhizi; [12],0%
same,inhibition at 45 g/ha,"Phakopsora pachyrhizi; Phakopsora pachyrhizi, foliar, applied alone, 45 g/ha, read-out: Observed Activity (%) (% of untreated) against Phakopsora pachyrhizi",0%

# Reference: patent US20230131427A1, “FUNGICIDAL COMPOSITIONS” (SYNGENTA CROP PROTECTION AG, priority 2020, published 2023)
